The numbers were not newly measured in patent publication US20250235488A1, “COMPOSITIONS AND METHODS FOR PROVIDING HEMATOPOIETIC FUNCTION” (Fred Hutchinson Cancer Center, priority 2010, published 2025), which cites them from elsewhere.

Assay in series [1]: not given
The source holds these as a separate data set.

For the compound `O=NN(CCCl)C(=O)NCCCl` [Carmustine], the solubility in alcohol result was “freely soluble”, the solubility in lipids entry is recorded as “highly soluble” and the solubility in water result was “slightly soluble”. In addition, the “CSF concentrations as percentage of concurrent plasma concentrations” value in series [1] (in vivo) is listed as 15-70%. Further, in series [1] (in vivo, iv), the “time after which no intact drug is detectable in plasma” value is 15 min.
As to `Nc1ccn([C@@H]2O[C@H](CO)[C@@H](O)[C@@H]2O)c(=O)n1` [Cytarabine], in series [1] (after rapid IV injection), the “plasma half-life, initial phase” value was “about 10 minutes” and the “plasma half-life, terminal phase” value was 1 to 3 h. In addition, the “dose excreted in the urine within 24 hours” value in series [1] (rapid IV, IM, SQ, IT injection or continuous IV infusion) is on record as 70-80%.
